These results are taken from paper PMC11267363, “Supramolecular Nanofibers Ameliorate Bleomycin‐Induced Pulmonary Fibrosis by Restoring Autophagy” (Advanced Science, 2024).

Ends that are not written are not given here.

In one experiment the target is T1, human TRB3 protein (Homo sapiens, UniProt Q96RU7).
T1 construct: purchased Sino Biological 10731-H09B
T1 sequence (Q96RU7 1-358): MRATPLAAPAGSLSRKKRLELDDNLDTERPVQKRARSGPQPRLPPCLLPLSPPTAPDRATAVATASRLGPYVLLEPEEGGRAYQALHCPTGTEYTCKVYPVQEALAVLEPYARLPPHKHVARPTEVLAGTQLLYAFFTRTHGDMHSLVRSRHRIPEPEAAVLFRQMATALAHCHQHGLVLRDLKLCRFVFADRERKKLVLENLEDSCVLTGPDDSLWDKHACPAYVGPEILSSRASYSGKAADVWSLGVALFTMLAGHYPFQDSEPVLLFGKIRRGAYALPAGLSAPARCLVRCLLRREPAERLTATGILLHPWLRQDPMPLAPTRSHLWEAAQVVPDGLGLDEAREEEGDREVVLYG
In words: Microscale thermophoresis (MST) binding to TRB3. The note with it: Monolith NT.115, recombinant human TRB3, read-out: binding constant (KD). As to the method:
(§1) To determine the effects of the self‐assembly factor “Ac‐GFFY” on the secondary structure of the A2 peptide fragment, Circular dichroism (CD) and Fourier transform infrared (FTIR) measurements were performed. […] We subsequently assessed the binding affinity between Ac‐GFFY‐A2 or A2 peptides to the human TRB3 protein or bovine serum albumin (BSA) using microscale thermophoresis (MST) assay, with BSA serving as the control group. […] Therefore, we labeled the peptide with the fluorescence group 7‐nitro‐1,2,3‐benzoxadiazole (NBD) to determine the cellular uptake via flow cytometer. The NBD‐labeled peptide was incubated with both of normal and activated MRC‐5 cells for 4 h, respectively. […] Collectively, under the action of supramolecular self‐assembly, the peptide assemblies with stable secondary conformation can not only be effectively absorbed by MRC‐5 cells but also have the potential to interfere with TRB3/p62 PPIs.
(§2) HR‐MS (Varian QFT‐ESI) was used to characterize the molecular weight of compounds. TEM (JEM100CXII) was performed at the Tecnai G2 F20 system, operating at 100 kV. Circular dichroism (CD) spectrum was obtained by a BioLogic (MOS‐450) system. Dynamic light scattering was measured by a ZETAPALS/BI‐200SM (BROOKHAVEN) system. Confocal laser scanning microscopy (CLSM) was measured by Leica TCS SP‐5. Flow cytometry (BD, FACS) was used to detect the cellular uptake. […]
(In general: MST reads how a fluorescent partner responds to local heating, with and without ligand.)

Experiment [1] has as its target bovine serum albumin (BSA) (Bos taurus, UniProt P02769). The experiment is described as follows: Microscale thermophoresis (MST) binding to BSA (negative control protein). The note with it: BSA as negative control. As to the method: as §1, §2
For the next experiment, the system named is MRC-5 cells. The experiment is described as follows: Western blot of α-SMA, Col 1 and fibronectin in TGF-β1 treated MRC-5 cells. The class given is cell-based, human. The conditions noted are these: MRC-5 cells treated with TGF-β1, western blot, n = 3. The text has this:
The progression of pulmonary fibrosis is closely associated with impaired autophagic flux by promoting the differentiation of fibroblast into myofibroblast. Given that Ac‐GFFY‐A2 peptide nanofibers have ability to restore the impaired autophagy, we proceeded to investigate their potential anti‐fibrotic effect. Fibroblasts and myofibroblasts are activated after tissue injury and in IPF patients, leading to increased ECM production and enhanced fibroblast migratory capacity.
Western blot analysis and co-immunoprecipitation
Total proteins were exacted from cells or tissues with RIPA lysis buffer (Beyotime Biotecnology). The protein concentration was measured using BCA Protein Assay Kit (Thermo Scientific). Equal amounts of lysates were resolved by SDS–PAGE. The protein transferred PVDF membranes were incubated with following primary antibodies at 4°C overnight: Then the membranes were incubated with horseradish peroxidase (HRP)-conjugated secondary antibodies at room temperature for 1 h, and protein signals were detected using an enhanced chemiluminescence kit (Pierce). […] The co -precipitates were resolved using SDS–PAGE and detected with immunoblotting. […]
The mice were then intravenously injected with 200 μL of sulfo-Cy5 labeled peptide (0.3 mg per mouse). Fluorescence imaging was performed using a IVIS Lumina II imaging (PerkinElmer, USA) at different time point post injection. […]
On the technique in general: In western blotting, separated proteins are transferred to a membrane and probed.

bovine serum albumin (BSA), sequence (P02769 25-607): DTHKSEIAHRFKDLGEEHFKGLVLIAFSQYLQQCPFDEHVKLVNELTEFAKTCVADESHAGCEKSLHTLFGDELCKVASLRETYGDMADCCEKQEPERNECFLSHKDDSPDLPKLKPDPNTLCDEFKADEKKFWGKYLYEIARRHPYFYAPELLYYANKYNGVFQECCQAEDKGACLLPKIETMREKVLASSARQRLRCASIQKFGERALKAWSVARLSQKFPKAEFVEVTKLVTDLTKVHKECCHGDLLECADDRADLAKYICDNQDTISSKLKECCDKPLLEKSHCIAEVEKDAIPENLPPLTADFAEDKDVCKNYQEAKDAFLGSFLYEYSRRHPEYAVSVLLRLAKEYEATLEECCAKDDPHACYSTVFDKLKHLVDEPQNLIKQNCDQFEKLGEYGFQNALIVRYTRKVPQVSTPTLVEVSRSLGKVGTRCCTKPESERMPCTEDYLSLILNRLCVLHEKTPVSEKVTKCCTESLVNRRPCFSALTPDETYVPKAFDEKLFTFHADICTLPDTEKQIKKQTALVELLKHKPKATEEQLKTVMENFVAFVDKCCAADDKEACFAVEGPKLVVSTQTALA

As a reminder, the Kd is the free concentration of one partner at which half of the binding sites on the other are occupied at equilibrium, for simple one-to-one binding. For Ac-GFFYGGWLTRLLQTK-OH [Ac-GFFY-A2], on human TRB3 protein, the Kd was about 19.1 µM. Besides, in experiment [1], the “binding with BSA” value was “no binding”. For the same substance, the “protein expression of α-SMA, col 1 and fibronectin” value in the experiment on MRC-5 cells is “remarkably reduced”.
In the case of GGWLTRLLQTK-OH [A2, reference compound], in experiment [1], the “binding with BSA” value is “no binding”. Also, in the experiment with MRC-5 cells, the “protein expression of α-SMA, col 1 and fibronectin” value is reported as “hardly inhibited fibroblast to myofibroblast differentiation”.
